Legend:
Assay in all cases: radiometric filter-binding kinase assay
PIM1 (human) = PIM1 (human) (UniProt P11309)
[1] = tested on: RPS6KB1 (human), P23443 [T412E]
MAPKAPK5 (human) = MAPKAPK5 (human) (UniProt Q8IW41)
HIPK2 (human) = HIPK2 (human) (UniProt Q9H2X6)
MAPK10 (human) = MAPK10 (human) (UniProt P53779)
DYRK2 (human) = DYRK2 (human) (UniProt Q92630)
STK3 (human) = STK3 (human) (UniProt Q13188)
CaMK1 (human) = CaMK1 (human) (UniProt Q14012)
MAPK9 (human) = MAPK9 (human) (UniProt P45984)
BRSK2 (human) = BRSK2 (human) (UniProt Q8IWQ3)
Sequence of BRSK2 (human) (Q8IWQ3 whole entry, looked up): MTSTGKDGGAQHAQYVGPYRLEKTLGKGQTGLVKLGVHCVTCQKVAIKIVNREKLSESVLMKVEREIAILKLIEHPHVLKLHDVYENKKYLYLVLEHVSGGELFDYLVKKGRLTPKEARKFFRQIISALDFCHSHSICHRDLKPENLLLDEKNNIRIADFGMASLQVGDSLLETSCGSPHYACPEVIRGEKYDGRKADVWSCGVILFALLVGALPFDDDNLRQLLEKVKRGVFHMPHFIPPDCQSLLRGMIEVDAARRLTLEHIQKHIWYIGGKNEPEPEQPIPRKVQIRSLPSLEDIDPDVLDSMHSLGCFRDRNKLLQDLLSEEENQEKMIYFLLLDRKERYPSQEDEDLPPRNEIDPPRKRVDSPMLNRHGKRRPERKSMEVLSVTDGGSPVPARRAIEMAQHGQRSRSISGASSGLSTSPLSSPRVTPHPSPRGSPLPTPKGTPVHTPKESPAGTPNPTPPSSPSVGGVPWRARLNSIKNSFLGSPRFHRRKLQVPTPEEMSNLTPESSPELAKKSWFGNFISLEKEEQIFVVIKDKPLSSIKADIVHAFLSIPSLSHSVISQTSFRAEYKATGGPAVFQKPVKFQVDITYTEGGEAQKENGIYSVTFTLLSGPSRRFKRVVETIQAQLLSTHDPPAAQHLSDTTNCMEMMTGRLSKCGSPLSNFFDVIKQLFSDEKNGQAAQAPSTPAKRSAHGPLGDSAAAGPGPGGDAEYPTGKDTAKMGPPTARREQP

DYRK3 (human) = DYRK3 (human) (UniProt O43781)
Sequence of DYRK3 (human) (O43781 whole entry, looked up): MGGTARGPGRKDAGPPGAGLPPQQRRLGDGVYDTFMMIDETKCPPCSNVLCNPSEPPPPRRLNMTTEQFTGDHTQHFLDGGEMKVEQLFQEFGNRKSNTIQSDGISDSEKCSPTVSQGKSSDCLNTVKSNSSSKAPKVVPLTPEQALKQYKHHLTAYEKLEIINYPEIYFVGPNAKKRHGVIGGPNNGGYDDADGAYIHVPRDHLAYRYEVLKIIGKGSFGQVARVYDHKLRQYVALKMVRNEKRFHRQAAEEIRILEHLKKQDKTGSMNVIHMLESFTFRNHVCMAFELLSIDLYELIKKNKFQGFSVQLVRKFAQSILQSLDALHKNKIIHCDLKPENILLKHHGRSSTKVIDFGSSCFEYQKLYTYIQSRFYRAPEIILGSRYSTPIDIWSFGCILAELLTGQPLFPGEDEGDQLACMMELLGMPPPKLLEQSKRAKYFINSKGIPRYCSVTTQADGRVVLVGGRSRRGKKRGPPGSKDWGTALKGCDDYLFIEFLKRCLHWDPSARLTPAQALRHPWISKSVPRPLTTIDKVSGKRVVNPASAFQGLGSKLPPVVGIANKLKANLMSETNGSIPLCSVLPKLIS

MAPK11 (human) = MAPK11 (human) (UniProt Q15759)
[2] = tested on: AKT1 (human), P31749 [S473D]
Sequence of AKT1 (human), P31749 [S473D] (P31749 whole entry S473D, looked up): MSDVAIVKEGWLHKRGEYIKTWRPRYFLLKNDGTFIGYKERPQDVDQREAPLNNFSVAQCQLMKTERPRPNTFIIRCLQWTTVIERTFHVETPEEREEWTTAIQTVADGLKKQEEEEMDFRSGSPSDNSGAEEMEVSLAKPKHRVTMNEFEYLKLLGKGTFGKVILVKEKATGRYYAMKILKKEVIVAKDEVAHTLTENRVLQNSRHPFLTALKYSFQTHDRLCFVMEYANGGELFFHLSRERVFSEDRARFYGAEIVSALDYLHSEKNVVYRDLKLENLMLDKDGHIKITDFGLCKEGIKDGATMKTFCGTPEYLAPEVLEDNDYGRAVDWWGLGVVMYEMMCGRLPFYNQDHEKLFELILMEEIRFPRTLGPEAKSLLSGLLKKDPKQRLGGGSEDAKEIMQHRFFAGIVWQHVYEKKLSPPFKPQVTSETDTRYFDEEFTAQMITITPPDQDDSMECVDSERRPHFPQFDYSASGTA

MARK3 (human) = MARK3 (human) (UniProt P27448)
PRKCA (human) = PRKCA (human) (UniProt P17252)
MAPK8 (human) = MAPK8 (human) (UniProt P45983)
Sequence of MAPK8 (human) (P45983 whole entry, looked up): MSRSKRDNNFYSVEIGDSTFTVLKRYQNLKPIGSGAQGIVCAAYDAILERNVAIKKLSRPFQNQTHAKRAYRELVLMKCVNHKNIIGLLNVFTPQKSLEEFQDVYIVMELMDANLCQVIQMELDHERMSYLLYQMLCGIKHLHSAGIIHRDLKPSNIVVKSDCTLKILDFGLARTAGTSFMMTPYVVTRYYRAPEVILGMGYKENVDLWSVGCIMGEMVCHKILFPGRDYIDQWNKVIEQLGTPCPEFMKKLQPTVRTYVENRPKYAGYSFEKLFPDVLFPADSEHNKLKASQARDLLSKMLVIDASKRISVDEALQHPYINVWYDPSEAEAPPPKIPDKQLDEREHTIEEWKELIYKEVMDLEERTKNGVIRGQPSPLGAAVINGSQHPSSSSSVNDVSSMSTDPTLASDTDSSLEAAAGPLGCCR

MAP2K1 (human) = MAP2K1 (human) (UniProt Q02750)
Sequence of MAP2K1 (human) (Q02750 whole entry, looked up): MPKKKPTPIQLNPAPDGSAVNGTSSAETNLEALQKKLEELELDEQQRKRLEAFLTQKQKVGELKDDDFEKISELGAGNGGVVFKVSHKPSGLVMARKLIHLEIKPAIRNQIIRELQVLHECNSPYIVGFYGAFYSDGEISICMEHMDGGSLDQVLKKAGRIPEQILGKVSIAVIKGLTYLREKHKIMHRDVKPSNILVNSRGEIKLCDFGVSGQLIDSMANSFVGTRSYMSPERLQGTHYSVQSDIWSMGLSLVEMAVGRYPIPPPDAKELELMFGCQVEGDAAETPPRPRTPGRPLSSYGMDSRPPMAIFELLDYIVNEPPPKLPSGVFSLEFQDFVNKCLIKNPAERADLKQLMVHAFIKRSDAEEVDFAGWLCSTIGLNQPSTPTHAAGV

SYK (human) = SYK (human) (UniProt P43405)
INSR (human) = INSR (human) (UniProt P06213); conditions: compound 0.1 µM
EPHA2 (human) = EPHA2 (human) (UniProt P29317)
FLT1 (human) = FLT1 (human) (UniProt P17948)
YES1 (human) = YES1 (human) (UniProt P07947)
BTK (human) = BTK (human) (UniProt Q06187)
TBK1 (human) = TBK1 (human) (UniProt Q9UHD2)

Sequence of MAPK10 (human) (P53779 whole entry, looked up): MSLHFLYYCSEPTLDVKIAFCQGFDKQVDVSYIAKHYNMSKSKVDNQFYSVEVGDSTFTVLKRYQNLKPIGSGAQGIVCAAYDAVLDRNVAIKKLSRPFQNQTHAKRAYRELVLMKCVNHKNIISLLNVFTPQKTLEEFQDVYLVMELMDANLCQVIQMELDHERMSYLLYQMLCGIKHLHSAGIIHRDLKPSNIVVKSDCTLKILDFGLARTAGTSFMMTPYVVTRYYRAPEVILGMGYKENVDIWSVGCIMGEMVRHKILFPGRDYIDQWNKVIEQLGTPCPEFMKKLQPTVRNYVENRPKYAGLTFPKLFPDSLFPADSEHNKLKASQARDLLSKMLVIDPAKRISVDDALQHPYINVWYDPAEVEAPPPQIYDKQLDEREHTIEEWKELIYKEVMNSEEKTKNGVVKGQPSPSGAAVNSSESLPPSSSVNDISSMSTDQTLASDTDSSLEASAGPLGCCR
Sequence of MAPKAPK5 (human) (Q8IW41 whole entry, looked up): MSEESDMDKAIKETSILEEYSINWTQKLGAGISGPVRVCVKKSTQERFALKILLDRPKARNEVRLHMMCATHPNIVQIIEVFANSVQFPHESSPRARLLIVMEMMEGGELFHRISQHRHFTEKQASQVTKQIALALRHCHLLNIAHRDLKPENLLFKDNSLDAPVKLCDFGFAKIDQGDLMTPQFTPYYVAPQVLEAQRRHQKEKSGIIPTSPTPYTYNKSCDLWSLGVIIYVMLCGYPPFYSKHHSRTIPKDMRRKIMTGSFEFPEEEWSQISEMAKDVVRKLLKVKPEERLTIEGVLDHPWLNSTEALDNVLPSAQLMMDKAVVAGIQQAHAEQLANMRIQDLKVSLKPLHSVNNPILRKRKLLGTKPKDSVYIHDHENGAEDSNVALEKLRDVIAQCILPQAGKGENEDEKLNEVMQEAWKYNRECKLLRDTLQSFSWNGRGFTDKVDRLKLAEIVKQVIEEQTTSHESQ
Sequence of RPS6KB1 (human), P23443 [T412E] (P23443 whole entry T412E, looked up): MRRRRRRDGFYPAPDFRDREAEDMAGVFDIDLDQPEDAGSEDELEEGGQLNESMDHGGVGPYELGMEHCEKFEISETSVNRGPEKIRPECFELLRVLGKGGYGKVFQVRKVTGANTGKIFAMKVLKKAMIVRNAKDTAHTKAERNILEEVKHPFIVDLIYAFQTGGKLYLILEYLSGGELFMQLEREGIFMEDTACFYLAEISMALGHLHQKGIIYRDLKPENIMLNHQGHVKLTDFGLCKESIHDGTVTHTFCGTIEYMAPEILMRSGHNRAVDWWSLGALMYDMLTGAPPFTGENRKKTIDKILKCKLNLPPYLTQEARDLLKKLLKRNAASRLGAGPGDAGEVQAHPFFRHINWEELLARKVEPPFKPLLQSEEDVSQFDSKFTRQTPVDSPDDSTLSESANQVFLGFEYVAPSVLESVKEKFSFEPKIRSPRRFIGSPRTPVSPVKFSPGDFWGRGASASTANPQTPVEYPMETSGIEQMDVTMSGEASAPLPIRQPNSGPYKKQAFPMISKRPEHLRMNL
Sequence of STK3 (human) (Q13188 whole entry, looked up): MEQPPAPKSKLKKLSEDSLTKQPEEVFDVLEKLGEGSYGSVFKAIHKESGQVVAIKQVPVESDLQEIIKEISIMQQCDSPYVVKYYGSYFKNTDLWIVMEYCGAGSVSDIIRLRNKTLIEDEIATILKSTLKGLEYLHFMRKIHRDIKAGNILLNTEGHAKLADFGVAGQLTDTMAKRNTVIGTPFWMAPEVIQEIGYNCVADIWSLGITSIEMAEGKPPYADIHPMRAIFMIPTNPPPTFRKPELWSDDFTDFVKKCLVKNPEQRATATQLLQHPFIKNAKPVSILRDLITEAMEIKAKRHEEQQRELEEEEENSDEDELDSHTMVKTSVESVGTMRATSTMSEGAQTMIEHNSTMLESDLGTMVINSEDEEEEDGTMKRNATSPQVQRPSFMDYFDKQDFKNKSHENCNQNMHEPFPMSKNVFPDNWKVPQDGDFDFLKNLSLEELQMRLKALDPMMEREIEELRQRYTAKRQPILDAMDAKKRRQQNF
Sequence of CaMK1 (human) (Q14012 whole entry, looked up): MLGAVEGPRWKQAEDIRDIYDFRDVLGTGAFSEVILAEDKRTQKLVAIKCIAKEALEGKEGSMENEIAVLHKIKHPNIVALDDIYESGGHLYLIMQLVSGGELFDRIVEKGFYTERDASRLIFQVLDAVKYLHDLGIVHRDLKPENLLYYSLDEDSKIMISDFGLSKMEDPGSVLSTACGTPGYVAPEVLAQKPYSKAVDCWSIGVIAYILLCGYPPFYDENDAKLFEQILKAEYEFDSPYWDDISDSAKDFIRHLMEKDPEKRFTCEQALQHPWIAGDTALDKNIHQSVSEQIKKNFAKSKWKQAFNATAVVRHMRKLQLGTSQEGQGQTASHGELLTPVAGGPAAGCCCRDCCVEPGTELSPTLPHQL

## Cn1nc(Nc2ccc(F)cc2)c2c(N)ncnc21
PIM1 (human); compound 1.0 µM
  residual activity: 111%
PIM1 (human); compound 10.0 µM
  residual activity: 115%
[1]; compound 1.0 µM
  residual activity: 114%
[1]; compound 10.0 µM
  residual activity: 114%
MAPKAPK5 (human); compound 1.0 µM
  residual activity: 107%
MAPKAPK5 (human); compound 10.0 µM
  residual activity: 109%
HIPK2 (human); compound 1.0 µM
  residual activity: 113%
HIPK2 (human); compound 10.0 µM
  residual activity: 105%
MAPK10 (human); compound 1.0 µM
  residual activity: 104%
MAPK10 (human); compound 10.0 µM
  residual activity: 104%
DYRK2 (human); compound 1.0 µM
  residual activity: 86%
DYRK2 (human); compound 10.0 µM
  residual activity: 83%
STK3 (human); compound 1.0 µM
  residual activity: 102%
STK3 (human); compound 10.0 µM
  residual activity: 104%
CaMK1 (human); compound 1.0 µM
  residual activity: 103%
CaMK1 (human); compound 10.0 µM
  residual activity: 97%
MAPK9 (human); compound 1.0 µM
  residual activity: 122%
MAPK9 (human); compound 10.0 µM
  residual activity: 124%
BRSK2 (human); compound 1.0 µM
  residual activity: 99%
BRSK2 (human); compound 10.0 µM
  residual activity: 92%
DYRK3 (human); compound 1.0 µM
  residual activity: 119%
DYRK3 (human); compound 10.0 µM
  residual activity: 101%
MAPK11 (human); compound 1.0 µM
  residual activity: 132%
MAPK11 (human); compound 10.0 µM
  residual activity: 127%
[2]; compound 1.0 µM
  residual activity: 124%
[2]; compound 10.0 µM
  residual activity: 106%
MARK3 (human); compound 1.0 µM
  residual activity: 82%
MARK3 (human); compound 10.0 µM
  residual activity: 79%
PRKCA (human); compound 1.0 µM
  residual activity: 120%
PRKCA (human); compound 10.0 µM
  residual activity: 121%
MAPK8 (human); compound 1.0 µM
  residual activity: 112%
MAPK8 (human); compound 10.0 µM
  residual activity: 102%
MAP2K1 (human); compound 1.0 µM
  residual activity: 108%
MAP2K1 (human); compound 10.0 µM
  residual activity: 104%

## Cn1c(=O)c2c(ncn2C)n(C)c1=O
PIM1 (human); compound 0.1 µM
  residual activity: 90%
PIM1 (human); compound 1.0 µM
  residual activity: 97%
[1]; compound 0.1 µM
  residual activity: 100%
[1]; compound 1.0 µM
  residual activity: 98%
MAPKAPK5 (human); compound 0.1 µM
  residual activity: 96%
MAPKAPK5 (human); compound 1.0 µM
  residual activity: 86%
HIPK2 (human); compound 0.1 µM
  residual activity: 103%
HIPK2 (human); compound 1.0 µM
  residual activity: 112%
DYRK2 (human); compound 0.1 µM
  residual activity: 81%
DYRK2 (human); compound 1.0 µM
  residual activity: 87%
STK3 (human); compound 0.1 µM
  residual activity: 97%
STK3 (human); compound 1.0 µM
  residual activity: 89%
CaMK1 (human); compound 0.1 µM
  residual activity: 90%
CaMK1 (human); compound 1.0 µM
  residual activity: 101%
MAPK9 (human); compound 0.1 µM
  residual activity: 94%
MAPK9 (human); compound 1.0 µM
  residual activity: 100%
BRSK2 (human); compound 0.1 µM
  residual activity: 99%
BRSK2 (human); compound 1.0 µM
  residual activity: 97%
SYK (human); compound 0.1 µM
  residual activity: 92%
SYK (human); compound 1.0 µM
  residual activity: 86%
INSR (human)
  residual activity: 104%
DYRK3 (human); compound 0.1 µM
  residual activity: 96%
DYRK3 (human); compound 1.0 µM
  residual activity: 98%
MAPK11 (human); compound 0.1 µM
  residual activity: 107%
MAPK11 (human); compound 1.0 µM
  residual activity: 104%
[2]; compound 0.1 µM
  residual activity: 90%
[2]; compound 1.0 µM
  residual activity: 101%
MARK3 (human); compound 0.1 µM
  residual activity: 79%
MARK3 (human); compound 1.0 µM
  residual activity: 79%
EPHA2 (human); compound 0.1 µM
  residual activity: 96%
EPHA2 (human); compound 1.0 µM
  residual activity: 102%
FLT1 (human); compound 0.1 µM
  residual activity: 80%
FLT1 (human); compound 1.0 µM
  residual activity: 84%
YES1 (human); compound 0.1 µM
  residual activity: 85%
YES1 (human); compound 1.0 µM
  residual activity: 85%
BTK (human); compound 0.1 µM
  residual activity: 79%
BTK (human); compound 1.0 µM
  residual activity: 78%
PRKCA (human); compound 0.1 µM
  residual activity: 101%
PRKCA (human); compound 1.0 µM
  residual activity: 100%
MAPK8 (human); compound 0.1 µM
  residual activity: 92%
MAPK8 (human); compound 1.0 µM
  residual activity: 78%
TBK1 (human); compound 0.1 µM
  residual activity: 92%
TBK1 (human); compound 1.0 µM
  residual activity: 96%

## Cc1cccc(Nc2nn(C)c3ncnc(N)c23)c1
PIM1 (human); compound 1.0 µM
  residual activity: 127%
PIM1 (human); compound 10.0 µM
  residual activity: 115%
[1]; compound 1.0 µM
  residual activity: 127%
[1]; compound 10.0 µM
  residual activity: 137%
MAPKAPK5 (human); compound 1.0 µM
  residual activity: 101%
MAPKAPK5 (human); compound 10.0 µM
  residual activity: 109%
HIPK2 (human); compound 1.0 µM
  residual activity: 124%
HIPK2 (human); compound 10.0 µM
  residual activity: 125%
MAPK10 (human); compound 1.0 µM
  residual activity: 101%
MAPK10 (human); compound 10.0 µM
  residual activity: 102%
DYRK2 (human); compound 1.0 µM
  residual activity: 93%
DYRK2 (human); compound 10.0 µM
  residual activity: 89%
STK3 (human); compound 1.0 µM
  residual activity: 90%
STK3 (human); compound 10.0 µM
  residual activity: 102%
CaMK1 (human); compound 1.0 µM
  residual activity: 92%
CaMK1 (human); compound 10.0 µM
  residual activity: 89%
MAPK9 (human); compound 1.0 µM
  residual activity: 104%
MAPK9 (human); compound 10.0 µM
  residual activity: 117%
BRSK2 (human); compound 1.0 µM
  residual activity: 102%
BRSK2 (human); compound 10.0 µM
  residual activity: 100%
DYRK3 (human); compound 1.0 µM
  residual activity: 136%
DYRK3 (human); compound 10.0 µM
  residual activity: 137%
MAPK11 (human); compound 1.0 µM
  residual activity: 131%
MAPK11 (human); compound 10.0 µM
  residual activity: 111%
[2]; compound 1.0 µM
  residual activity: 100%
[2]; compound 10.0 µM
  residual activity: 114%
MARK3 (human); compound 1.0 µM
  residual activity: 89%
MARK3 (human); compound 10.0 µM
  residual activity: 94%
PRKCA (human); compound 1.0 µM
  residual activity: 102%
PRKCA (human); compound 10.0 µM
  residual activity: 117%
MAPK8 (human); compound 1.0 µM
  residual activity: 99%
MAPK8 (human); compound 10.0 µM
  residual activity: 97%
MAP2K1 (human); compound 1.0 µM
  residual activity: 187%
MAP2K1 (human); compound 10.0 µM
  residual activity: 191%

## COc1ccc2c(c1)c1c3c(c4c5ccccc5n(C)c4c1n2CC(O)CN(C)C)C(=O)NC3=O (configuration not stated)
PIM1 (human); compound 0.1 µM
  residual activity: 9%
PIM1 (human); compound 1.0 µM
  residual activity: 1%
PIM1 (human); compound 10.0 µM
  residual activity: 2%
[1]; compound 0.1 µM
  residual activity: 11%
[1]; compound 1.0 µM
  residual activity: 2%
[1]; compound 10.0 µM
  residual activity: 1%
MAPKAPK5 (human); compound 0.1 µM
  residual activity: 104%
MAPKAPK5 (human); compound 1.0 µM
  residual activity: 103%
MAPKAPK5 (human); compound 10.0 µM
  residual activity: 108%
HIPK2 (human); compound 0.1 µM
  residual activity: 97%
HIPK2 (human); compound 1.0 µM
  residual activity: 55%
HIPK2 (human); compound 10.0 µM
  residual activity: 24%
MAPK10 (human); compound 0.1 µM
  residual activity: 90%
MAPK10 (human); compound 1.0 µM
  residual activity: 97%
MAPK10 (human); compound 10.0 µM
  residual activity: 87%
DYRK2 (human); compound 0.1 µM
  residual activity: 98%
DYRK2 (human); compound 1.0 µM
  residual activity: 65%
DYRK2 (human); compound 10.0 µM
  residual activity: 70%
STK3 (human); compound 0.1 µM
  residual activity: 20%
STK3 (human); compound 1.0 µM
  residual activity: 3%
STK3 (human); compound 10.0 µM
  residual activity: 2%
CaMK1 (human); compound 0.1 µM
  residual activity: 79%
CaMK1 (human); compound 1.0 µM
  residual activity: 55%
CaMK1 (human); compound 10.0 µM
  residual activity: 16%
MAPK9 (human); compound 0.1 µM
  residual activity: 92%
MAPK9 (human); compound 1.0 µM
  residual activity: 63%
MAPK9 (human); compound 10.0 µM
  residual activity: 35%
BRSK2 (human); compound 0.1 µM
  residual activity: 72%
BRSK2 (human); compound 1.0 µM
  residual activity: 18%
BRSK2 (human); compound 10.0 µM
  residual activity: 6%
DYRK3 (human); compound 0.1 µM
  residual activity: 92%
DYRK3 (human); compound 1.0 µM
  residual activity: 57%
DYRK3 (human); compound 10.0 µM
  residual activity: 24%
MAPK11 (human); compound 0.1 µM
  residual activity: 119%
MAPK11 (human); compound 1.0 µM
  residual activity: 102%
MAPK11 (human); compound 10.0 µM
  residual activity: 95%
[2]; compound 0.1 µM
  residual activity: 70%
[2]; compound 1.0 µM
  residual activity: 34%
[2]; compound 10.0 µM
  residual activity: 8%
MARK3 (human); compound 0.1 µM
  residual activity: 93%
MARK3 (human); compound 1.0 µM
  residual activity: 68%
MARK3 (human); compound 10.0 µM
  residual activity: 33%
PRKCA (human); compound 0.1 µM
  residual activity: 5%
PRKCA (human); compound 1.0 µM
  residual activity: 1%
PRKCA (human); compound 10.0 µM
  residual activity: 1%
MAPK8 (human); compound 0.1 µM
  residual activity: 103%
MAPK8 (human); compound 1.0 µM
  residual activity: 99%
MAPK8 (human); compound 10.0 µM
  residual activity: 60%
MAP2K1 (human); compound 0.1 µM
  residual activity: 82%
MAP2K1 (human); compound 1.0 µM
  residual activity: 27%
MAP2K1 (human); compound 10.0 µM
  residual activity: 16%

Reference: the kinase profiling compilation of Christmann-Franck et al. (2016)
